Reference: ChEMBL document CHEMBL1201862, “PubChem BioAssay data set” (2004)
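Following 48 hours of exposure in 96-well plates, responses at five concentrations were used to interpolate endpoints linearly. At the GI50, growth is halved.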 The source made the active and inactive calls. Cut-off read from the data, not from the text of the source: active = GI50 up to about 1.1 µM and inactive = higher.

How the values were obtained:
Test in all cases: DTP human tumour cell line panel, 48 h
KM12 = test system: KM12
OVCAR-4 = test system: OVCAR-4
NCI-H226 = test system: NCI-H226
SN12C = test system: SN12C
COLO 205 = test system: COLO 205
IGROV-1 = test system: IGROV-1
SF-539 = test system: SF-539
HCT-116 = test system: HCT-116
SK-MEL-2 = test system: SK-MEL-2
M14 = test system: M14
SNB-75 = test system: SNB-75
SF-295 = test system: SF-295
TK-10 = test system: TK-10
NCI-H460 = test system: NCI-H460
PC-3 = test system: PC-3
HT-29 = test system: HT-29
UACC-62 = test system: UACC-62
SF-268 = test system: SF-268
NCI-H522 = test system: NCI-H522
NCI-H23 = test system: NCI-H23

Measured: GI50

N#Cc1c(-c2ccccc2)c(C#N)c(=O)n(NS(=O)(=O)c2ccccc2)c1O
inactive: KM12 > 100 µM | OVCAR-4 > 100 µM | NCI-H226 > 100 µM | SN12C > 100 µM | COLO 205 > 100 µM | IGROV-1 > 100 µM | SF-539 > 100 µM | HCT-116 > 100 µM | SK-MEL-2 > 100 µM | M14 > 100 µM | SNB-75 > 100 µM | SF-295 > 100 µM | TK-10 > 100 µM | NCI-H460 > 100 µM | PC-3 > 100 µM | HT-29 > 100 µM | UACC-62 > 100 µM | SF-268 > 100 µM | NCI-H522 > 100 µM

CCOC(=O)Cc1ccc(Nc2nc3cc(F)c(F)cc3nc2C(=O)OCC)cc1
inactive: KM12 > 100 µM | NCI-H23 26 µM | OVCAR-4 57 µM | NCI-H226 69.3 µM | SN12C 74.5 µM | COLO 205 37.2 µM | IGROV-1 28.7 µM | SF-539 > 100 µM | HCT-116 71.9 µM | SK-MEL-2 22.9 µM | M14 35.1 µM | SNB-75 81.8 µM | SF-295 73.1 µM | TK-10 > 100 µM | NCI-H460 69.5 µM | PC-3 49.5 µM | HT-29 53.7 µM | UACC-62 39.2 µM | SF-268 64.9 µM | NCI-H522 9.18 µM

Cc1cc2nc(-c3cc(C(C)(C)C)c(O)c(C(C)(C)C)c3)[nH]c2cc1C
active: UACC-62 0.979 µM
inactive: KM12 3.39 µM | NCI-H23 > 34 µM | OVCAR-4 1.54 µM | NCI-H226 > 100 µM | SN12C 9.62 µM | COLO 205 2.9 µM | IGROV-1 5.08 µM | SF-539 28.1 µM | HCT-116 1.79 µM | SK-MEL-2 > 100 µM | M14 4.67 µM | SNB-75 > 100 µM | SF-295 > 100 µM | TK-10 > 22.3 µM | NCI-H460 4.47 µM | PC-3 7.19 µM | SF-268 9.62 µM | NCI-H522 > 100 µM

CC(=O)C1=C(c2ccccc2)N(C2OC(CO)C(O)C(O)C2O)C(S)=C(C#N)C1c1ccc(Cl)cc1 (stereo not drawn)
inactive: KM12 23.2 µM | NCI-H23 36 µM | OVCAR-4 29.6 µM | NCI-H226 20.7 µM | SN12C 38.5 µM | COLO 205 24.7 µM | IGROV-1 39.7 µM | SF-539 18.2 µM | HCT-116 16 µM | SK-MEL-2 12.9 µM | M14 21 µM | SNB-75 28.8 µM | SF-295 35.9 µM | TK-10 52.7 µM | NCI-H460 21.9 µM | PC-3 22.1 µM | HT-29 31 µM | UACC-62 16.4 µM | SF-268 24.8 µM | NCI-H522 23.7 µM

O=C1NC(Nc2ccccc2)=N/C1=C\c1c(Cl)cccc1Cl
inactive: KM12 29.5 µM | NCI-H23 29.6 µM | OVCAR-4 7.18 µM | NCI-H226 16.7 µM | SN12C 15.7 µM | COLO 205 31.3 µM | IGROV-1 17.8 µM | SF-539 22.1 µM | HCT-116 27.4 µM | SK-MEL-2 18 µM | M14 22.8 µM | SNB-75 18.9 µM | SF-295 31.3 µM | TK-10 18.9 µM | NCI-H460 24.9 µM | PC-3 17.8 µM | HT-29 30.6 µM | UACC-62 21.6 µM | SF-268 29.3 µM | NCI-H522 53.3 µM
